The values below are quoted from earlier work in patent publication US8496960B2 (Purdue Pharma L.P., priority 2001, dated 2013).

Where only a bound is given, the exact number is not on record here.

For data set [1] the following is noted: following oral administration.

Consider `COc1cc2nc(N3CCN(C(=O)C4CCCO4)CC3)nc(N)c2cc1OC` (stereo not drawn) [terazosin], for which the first-pass effect entry (following oral administration) was “minimal”. In addition, the “effect of food on bioavailability” value (oral, with food) is listed as “no significant effect”. For the same compound, the “time to antihypertensive effects” value in data set [1] is at most 15 min.
